From PMC7734574 (International Journal of Molecular Sciences, 2020)
Like-named read-outs stand apart in the source and are kept apart here.

Key:
[1] = thermal back isomerization (half-life of the metastable form) by UV/VIS spectroscopy; assay type: physicochemical; details: 37 °C, DMSO (UV/VIS)
Procedure: For the meta-linked derivative 3 (Figure 6a), a maximum shift of the PSS toward the Z-isomer can be achieved by irradiation at 365 nm. By NMR spectroscopy, a Z-isomer content of 83% was determined in the PSS. […] Back switching to the E-isomers E-3 and E-4 is possible by irradiation at 435 nm (3) or 470 nm (4), respectively. Furthermore, half-lives of the azobenzene derivatives were determined by UV/VIS spectroscopy at 37 °C in DMSO.
(§1) UV/VIS spectra were measured using a Varian Cary® 50 Scan UV/VIS photometer from Agilent (Waldbronn, Germany) equipped with a Varian Cary PCB 150 thermostat either at 25 °C or 37 °C. […] The fitting of thermal relaxations was done with GraphPad Prism® (v.7.03, GraphPad Software, San Diego, CA, USA).

[2] = isomer ratio of the photostationary state by NMR spectroscopy; assay type: physicochemical
From the text: (§2) In order to determine the isomer ratios of the PSS as well as to identify the optimal excitation wavelengths for the E/Z isomerizations, compounds 3–7 were characterized by UV/VIS and NMR spectroscopy. Due to their poor water solubility along with the low molar absorption coefficients of diazocines, all compounds were initially analyzed in DMSO.

[3] = target: T1, VEGFR-2 (purified kinase domain, KDR active) (Homo sapiens, UniProt P35968); assay: luminescence-based ADP-Glo kinase assay under controlled light conditions; assay type: biochemical; parameters: VEGFR-2 (purified kinase domain, KDR active, Promega); purchased Promega
[4] = photoswitching followed by UV/VIS spectroscopy; assay type: physicochemical; details: for photoconversion on back switching to the E-isomer: DMSO
From the text: as §2
By irradiation at 530 nm, the diazocine-based compounds 5–7 can be switched back quantitatively to the Z-isomer. Since the associated spectra completely overlap with the spectra of the pure Z-isomers, they are not shown for reasons of clarity. To check the reversibility of the photoswitching, long-term stability measurements with 20 switching cycles were performed. For this purpose, the compounds were irradiated alternately for 20 s at 405 nm and 530 nm, respectively. After each irradiation, an UV/VIS spectrum was recorded.
as §1

[5] = axitinib, DMSO (NMR), cited from earlier work
[6] = target: T1, VEGFR-2 (purified kinase domain, KDR active); details: cited from earlier work
[7] = system: lysates of human umbilical vein endothelial cells (HUVECs); assay: kinome activity profiling (PamGene) of treated cell lysate; assay type: biochemical; details: 20 µM, irradiated at 405 nm, HUVEC lysate, 10% DMSO
[8] = DMSO (NMR), irradiation at 405 nm
[9] = PSS after irradiation at 405 nm, 10% DMSO
[10] = Z-isomer, in the dark (unirradiated), 10% DMSO
[11] = after irradiation at 405 nm, 10% DMSO
[12] = DMSO, NMR, irradiation at 365 nm
[13] = E-isomer, in the dark (unirradiated), 1% DMSO
[14] = both irradiated and unirradiated compounds

T1 sequence (P35968 834-1162 limits assumed): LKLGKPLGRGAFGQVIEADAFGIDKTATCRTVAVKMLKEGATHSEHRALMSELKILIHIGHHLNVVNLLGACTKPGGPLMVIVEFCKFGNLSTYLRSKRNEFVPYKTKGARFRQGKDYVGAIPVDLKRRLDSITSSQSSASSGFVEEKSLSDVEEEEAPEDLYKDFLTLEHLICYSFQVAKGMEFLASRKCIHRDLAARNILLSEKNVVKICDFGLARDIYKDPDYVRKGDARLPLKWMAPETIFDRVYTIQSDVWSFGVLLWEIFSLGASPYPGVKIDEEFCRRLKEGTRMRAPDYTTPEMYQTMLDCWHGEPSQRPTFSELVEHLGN

CNC(=O)c1ccccc1Sc1ccc2c(-c3ccc4c(c3)CSc3ccccc3/N=N\4)n[nH]c2c1 [Compound 6, (Z)‐2‐((3‐(12H‐dibenzo[b,f][1,4,5]thiadiazocin‐2‐yl)‐1H‐indazol‐6‐yl)thio)‐N‐methylbenzamide]
k of exponential fit of thermal back isomerization [1]: 0.1853
PSS (E/Z%) [2, 8]: 25/75
E-isomer content in the PSS ([2]; DMSO, irradiation at 405 nm): 25%
IC50 [3, 9]: 0.251 µM
IC50 [3, 10]: > 10 µM
residual activity (plateau) [3, 11]: 10%

CNC(=O)c1ccccc1Sc1ccc2c(-c3ccc4c(c3)/N=N\c3ccccc3CC4)n[nH]c2c1 [Compound 7, (Z)‐2‐((3‐(11,12‐dihydrodibenzo[c,g][1,2]diazocin‐3‐yl)‐1H‐indazol‐6‐yl)thio)‐N‐methylbenzamide]
k of exponential fit of thermal back isomerization [1]: 0.4711
PSS (E/Z%) [2, 8]: 60/40
E-isomer content in the PSS ([2]; DMSO, irradiation at 405 nm): 60%
IC50 [3, 9]: 0.493 µM
residual activity ([3]; Z-isomer in the dark, 10% DMSO): ≥ 37%

CNC(=O)c1ccccc1Sc1ccc2c(-c3cccc(/N=N/c4ccccc4)c3)n[nH]c2c1 [Compound 3, (E)‐N‐methyl‐2‐((3‐(3‐(phenyldiazenyl)phenyl)‐1H‐indazol‐6‐yl)thio) benzamide]
k of exponential fit of thermal back isomerization [1]: 0.01608
PSS (E/Z%) [2, 12]: 17/83
Z-isomer content in the PSS [2, 12]: 83%
photoconversion on back switching to the E-isomer ([4]; irradiation at 435 nm): almost quantitative
residual activity (plateau) ([3]; E-isomer in the dark): 33%
IC50 [3, 13]: 1.08 µM
IC50 ([3]; PSS after irradiation at 365 nm, 1% DMSO): 1.29 µM
residual activity (plateau) ([3]; after irradiation at 365 nm): 5%
IC50 [3, 14]: ~1 µM

CNC(=O)c1ccccc1Sc1ccc2c(-c3ccc(/N=N/c4ccccc4)cc3)n[nH]c2c1 [Compound 4, (E)‐N‐methyl‐2‐((3‐(4‐(phenyldiazenyl)phenyl)‐1H‐indazol‐6‐yl)thio) benzamide]
k of exponential fit of thermal back isomerization [1]: 0.121
PSS (E/Z%) ([2]; DMSO (NMR), irradiation at 385 nm): 20/80
photoconversion on back switching to the E-isomer ([4]; irradiation at 470 nm): almost quantitative
residual activity (plateau) ([3]; E-isomer in the dark): 43%
IC50 [3, 13]: 1.02 µM
IC50 ([3]; PSS after irradiation at 385 nm, 1% DMSO): 1.44 µM
residual activity (plateau) ([3]; after irradiation at 385 nm): 13%
IC50 [3, 14]: ~1 µM

CNC(=O)c1ccccc1Sc1ccc2c(/C=C/c3ccccn3)n[nH]c2c1 [Compound 1, Axitinib]
PSS (E/Z%) ([5]; 365 nm (E → Z)): 51/49
PSS (E/Z%) ([5]; 385 nm (Z → E)): 88/12
difference in biological activities of Z-axitinib and E-axitinib [6]: 43 fold

CNC(=O)c1ccccc1Sc1ccc2c(-c3ccc4c(c3)/N=N\c3ccccc3SC4)n[nH]c2c1 [Compound 5, (Z)‐2‐((3‐(12H‐dibenzo[b,f][1,4,5]thiadiazocin‐3‐yl)‐1H‐indazol‐6‐yl)thio)‐N‐methylbenzamide]
k of exponential fit of thermal back isomerization [1]: 0.09514
PSS (E/Z%) [2, 8]: 47/53
kinase activities (phosphorylation degree of substrate peptides) compared to DMSO [7]: moderate decrease of kinase activities
IC50 [3, 9]: 0.214 µM
IC50 [3, 10]: > 10 µM
residual activity (plateau) [3, 11]: 6%

CNC(=O)c1ccccc1Sc1ccc2c(/N=N/c3ccccn3)n[nH]c2c1 [Compound 2, (E)‐N‐methyl‐2‐((3‐(pyridin‐2‐yldiazenyl)‐1H‐indazol‐6‐yl)thio)benzamide]
spectral change upon irradiation ([4]; 20 µM in DMSO and water with 10 % DMSO, 365, 385, 405, 420 and 470 nm): No spectral change
IC50 [3, 13]: 0.415 µM
